Data from patent publication US20020028940A1, “Indolyl-substituted phenylacetic acid derivatives” (priority 1995, published 2002).
pIC50: −log10 of the molar value. Where two headings read alike, the source gives them in different places.

Tests used:
[1] = system: ApoB-100-associated lipoproteins; assay: Inhibition of the release of ApoB-100-associated lipoproteins from hepatic cells (HepG2), LDL immunoassay; type: cell-based, human; conditions: concentration at which adsorption of light (450 nm) is inhibited by 50% compared with solvent control
Protocol: 1. Inhibition of the release of ApoB-100-associated lipoproteins
The test for detection of the inhibition of the release of ApoB-100-associated lipoproteins from hepatic cells was carried out in vitro with cultured hepatic cells, preferably with cells of the human line HepG2. These cells are cultured under standard conditions in medium for culture of eukaryotic cells, preferably in RPM 1640 with 10% foetal calf serum. HepG2 cells synthesize and secrete into the culture supernatant ApoB-100-associated lipoprotein particles, which are in principle built up similarly to the VLDL and LDL particles which are to be found in plasma.
These particles can be detected with an immunoassay for human LDL. This immunoassay is carried out with antibodies which have been induced against human LDL in rabbits under standard conditions. The anti-LDL antibodies (rab-anti-LDL-Ab) were purified by affinity chromatography on an immunosorbent with human LDL. These purified rab-anti-LDL-Ab are adsorbed onto the surface of plastic. This adsorption is expediently carried out on the plastic surface of microtiter plates with 96 wells, preferably on MaxiSorp plates. If ApoB-100-associated particles are present in the supernatant of Hep-G2 cells, these can then bond to the insolubilized rab-anti-LDL-Ab, and an immune complex bonded to the plastic surface is formed. Non-bonded proteins are removed by washing. The immune complex on the plastic surface is detected with monoclonal antibodies, which have been induced against human LDL and purified under standard conditions. These antibodies were conjugated with the enzyme peroxidase. Peroxidase converts the colourless substrate TMB into a coloured product in the presence of H2O2. After acidification of the reaction mixture with H2SO4, the specific adsorption of light is determined at 450 nm, this being a measure of the amount of ApoB-100-associated particles which had been secreted by the HepG2 cells into the culture supernatant.
The IC50 value indicates the concentration of substance at which the adsorption of light is inhibited by 50% compared with the control (solvent control without the substance).

[2] = system: intestinal triglyceride absorption; assay: Inhibition of intestinal triglyceride absorption in vivo (rats); design: species or system male Wistar rats; conditions: fasting rats, postprandial serum triglyceride increase after tragacanth-olive oil loading
Protocol: 3. Inhibition of intestinal triglyceride absorption in vivo (rats)
The substances which are to be investigated in vivo for their inhibiting action on triglyceride absorption are administered orally to male Wistar rats having a body weight of between 170 and 230 g. For this purpose, the animals are divided into groups of 6 animals 18 hours before administration of the substance, and their food is then withdrawn. Drinking water is available to the animals ad libitum. The animals of the control groups are given an aqueous tragacanth suspension or a tragacanth suspension which comprises olive oil. The tragacanth-olive oil suspension is prepared with an Ultra-Turrax. The substances to be investigated are suspended in a corresponding tragacanth-olive oil suspension, likewise with an Ultra-Turrax, directly before administration of the substance.
Before administration by a stomach tube, blood is taken from each rat by puncture of the retroorbital venous plexus for determination of the basal serum triglyceride content. The tragacanth suspension, the tragacanth-olive oil suspensions without a substance (control animals) or the substances, suspended in a corresponding tragacanth-olive oil suspension, are then administered to the fasting animals using a stomach tube. Further blood for determination of the postprandial serum triglyceride increase is as a rule taken 1, 2 and 3 hours after the administration by a stomach tube.
The blood samples are centrifuged and, after isolation of the serum, the triglycerides are determined photometrically with an EPOS-Analyzer 5060 (Eppendorf Gerätebau, Netheler & Hinz GmbH, Hamburg). The triglycerides are determined completely enzymatically with a commercially available UV test.
The postprandial increase in serum triglycerides is determined by subtraction of the triglyceride prevalue of each animal from its corresponding postprandial triglyceride concentrations (1, 2 and 3 hours after administration).
The average is taken of the differences (in mmol/l) at each point in time (1, 2 and 3 hours) in the groups, and the means of the increase in serum triglycerides (ΔTG) of the animals treated with the substance are compared with the animals which received only the tragacanth-oil suspension.
The course of the serum triglycerides in the control animals, which were given only tragacanth, is also calculated. The effect of the substance at each point in time (1, 2 or 3 hours) is determined as follows and stated in Δ% of the oil-loaded control. [formula]
Effect of 10 mg of test substance/kg of body weight p.o. on the increase in triglycerides (Δ%) 2 hours after a triglyceride loading in the serum of fasting rats. The increase in serum triglycerides of fat-loaded control animals, based on the serum triglycerides level of tragacanth control animals, corresponds to 100%. n=6 animals per group.
The statistical analysis is carried out with the Student t-test after first checking the variances for homogeneity.

| pIC50 [1] | Structure (SMILES) | ED50 ([2]; p.o.) | further results |
| --- | --- | --- | --- |
| 8.09 | CCOC(=O)c1cc2ccccc2n1Cc1ccc(C(C(=O)NC(CO)c2ccccc2)C2CCCCCC2)cc1 (mixture of isomers) [Example 20] | >>10 mg/kg |  |
| 6.64 | Cc1c(C)n(Cc2ccc(C(C(=O)NC(CO)c3ccccc3)C3CCCC3)cc2)c2ccccc12 (single isomer, unassigned) [Example 7] |  |  |
| 7.33 | O=C(NC(CO)c1ccccc1)C(c1ccc(Cn2c(-c3ccccc3)cc3ccccc32)cc1)C1CCCC1 (single isomer, unassigned) [Example 15] |  |  |
| 7.43 | Cc1c(C)n(Cc2ccc(C(C(=O)NC(CO)c3ccccc3)C3CCCC3)cc2)c2ccccc12 (single isomer, unassigned) [Example 6] |  |  |
| 7.63 | CCOC(=O)c1cc2ccccc2n1Cc1ccc(C(C(=O)NC(CO)c2ccccc2)C2CCCCCC2)cc1 (single isomer, unassigned) [Example 22] |  |  |
| 7.42 | CCOC(=O)c1cc2ccccc2n1Cc1ccc(C(C(=O)NC(CO)c2ccccc2)C2CCCC2)cc1 (mixture of isomers) [Example 17] |  |  |
| 7.14 | COc1cccc2c1ccn2Cc1ccc(C(C(=O)NC(CO)c2ccccc2)C2CCCC2)cc1 (mixture of isomers) [Example 36] |  |  |
| 7.08 | Cc1c(C)n(Cc2ccc(C(C(=O)NC(CO)c3ccccc3)C3CCCC3)cc2)c2ccccc12 (mixture of isomers) [Example 5] |  |  |
| 7.31 | O=C(NC(CO)c1ccccc1)C(c1ccc(Cn2ccc3cc(Cl)ccc32)cc1)C1CCCCCC1 (mixture of isomers) [Example 32] |  |  |
| 7.39 | Cc1cc2ccccc2n1Cc1ccc(C(C(=O)NC(CO)c2ccccc2)C2CCCCCC2)cc1 (mixture of isomers) [Example 4] | <10 mg/kg |  |
| 7.44 | O=C(NC(CO)c1ccccc1)C(c1ccc(Cn2c(-c3ccccc3)cc3ccccc32)cc1)C1CCCCCC1 (mixture of isomers) [Example 16] | >2 mg/kg |  |
| 8.19 | CCOC(=O)c1cc2cc(Cl)ccc2n1Cc1ccc(C(C(=O)NC(CO)c2ccccc2)C2CCCC2)cc1 (single isomer, unassigned) [Example 27] | >2 mg/kg |  |
| 6.57 | COc1cccc2c1ccn2Cc1ccc(C(C(=O)NC(CO)c2ccccc2)C2CCCC2)cc1 (single isomer, unassigned) [Example 38] |  |  |
| 6.37 | Cc1cccc2ccn(Cc3ccc(C(C(=O)NC(CO)c4ccccc4)C4CCCC4)cc3)c12 (mixture of isomers) [Example 31] |  |  |
| 7.91 | O=C(NC(CO)c1ccccc1)C(c1ccc(Cn2ccc3ccc(Cl)cc32)cc1)C1CCCC1 (single isomer, unassigned) [Example 34] | 2 mg/kg |  |
| 7.39 | O=C(NC(CO)c1ccccc1)C(c1ccc(Cn2ccc3ccc(Cl)cc32)cc1)C1CCCC1 (mixture of isomers) [Example 33] |  |  |
| 8.35 | CCOC(=O)c1cc2ccccc2n1Cc1ccc(C(C(=O)NC(CO)c2ccccc2)C2CCCCCC2)cc1 (single isomer, unassigned) [Example 21] | >>6 mg/kg |  |
| 7.20 | CCOC(=O)c1cc2cc(Cl)ccc2n1Cc1ccc(C(C(=O)NC(CO)c2ccccc2)C2CCCC2)cc1 (single isomer, unassigned) [Example 28] |  |  |
| 7.30 | Cc1c(C)n(Cc2ccc(C(C(=O)NC(CO)c3ccccc3)C3CCCCC3)cc2)c2ccccc12 (mixture of isomers) [Example 8] |  |  |
| 7.44 | CCOC(=O)c1cc2cc(OC)ccc2n1Cc1ccc(C(C(=O)NC(CO)c2ccccc2)C2CCCC2)cc1 (mixture of isomers) [Example 23] | 2 mg/kg |  |
| 7.39 | Cc1cn(Cc2ccc(C(C(=O)NC(CO)c3ccccc3)C3CCCCCC3)cc2)c2ccccc12 (mixture of isomers) [Example 29] | 3 mg/kg |  |
| 7.51 | COc1cccc2c1ccn2Cc1ccc(C(C(=O)NC(CO)c2ccccc2)C2CCCC2)cc1 (single isomer, unassigned) [Example 37] | >2 mg/kg |  |
| 7.57 | CCOC(=O)c1cc2cc(Cl)ccc2n1Cc1ccc(C(C(=O)NC(CO)c2ccccc2)C2CCCC2)cc1 (mixture of isomers) [Example 26] |  |  |
| 6.32 | O=C(NC(CO)c1ccccc1)C(c1ccc(Cn2c(-c3ccccc3)cc3ccccc32)cc1)C1CCCC1 (single isomer, unassigned) [Example 14] |  |  |
| 6.51 | O=C(NC(CO)c1ccccc1)C(c1ccc(Cn2ccc3ccc(Cl)cc32)cc1)C1CCCC1 (single isomer, unassigned) [Example 35] |  |  |
|  | Cc1c(C)n(Cc2ccc(C(C(=O)N[C@@H](CO)c3ccccc3)C3CCCCCC3)cc2)c2ccccc12 (stereo partly drawn) [Example 2, 2-Cycloheptyl-N-(2-hydroxy-1-(R)-phenylethyl)-2-[4-(2,3-dimethylindol-1-yl-methyl)phenyl]acetamide] |  | pIC50 ([1]; Homo sapiens): 7.53; ED50 ([2]; Rattus norvegicus, po, read-out: TG absorption ED50 or % inhibition mg/kg/p.o.): < 3 mg/kg; melting point: 163 °C |
